Test results: PubChem BioAssay AID624167 (Sanford-Burnham Center for Chemical Genomics, 2012)
The source made the active and inactive calls.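 How the source made its calls: active means mean IC50 for reducing PEG3 promoter reporter signal at or below a set limit, with IC50 above the limit in both counter screens; inactive means the rest, including counter screen hits.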

What was measured:
Rat fibroblasts (CREF) = assay: Peg3 promoter luciferase inhibitors, potency, dose response, cell-based, HeLa, CREF/GAPDH counter-screen panel (AID 624167); conditions: CREF/GAPDH counter-screens
GAPDH = assay: as above; conditions: CREF/GAPDH counter-screens
PEG-3 [1] = assay: as above; conditions: HeLa PEG-Prom luciferase reporter, overnight, CREF/GAPDH counter-screens
PEG-3 [2] = molecular target: PEG-3 (UniProt Q6IN02); assay: as above; conditions: HeLa PEG-Prom luciferase reporter, overnight, CREF/GAPDH counter-screens, mean of runs
Sequence of PEG-3 (UniProt Q6IN02) (Q6IN02 whole entry, looked up): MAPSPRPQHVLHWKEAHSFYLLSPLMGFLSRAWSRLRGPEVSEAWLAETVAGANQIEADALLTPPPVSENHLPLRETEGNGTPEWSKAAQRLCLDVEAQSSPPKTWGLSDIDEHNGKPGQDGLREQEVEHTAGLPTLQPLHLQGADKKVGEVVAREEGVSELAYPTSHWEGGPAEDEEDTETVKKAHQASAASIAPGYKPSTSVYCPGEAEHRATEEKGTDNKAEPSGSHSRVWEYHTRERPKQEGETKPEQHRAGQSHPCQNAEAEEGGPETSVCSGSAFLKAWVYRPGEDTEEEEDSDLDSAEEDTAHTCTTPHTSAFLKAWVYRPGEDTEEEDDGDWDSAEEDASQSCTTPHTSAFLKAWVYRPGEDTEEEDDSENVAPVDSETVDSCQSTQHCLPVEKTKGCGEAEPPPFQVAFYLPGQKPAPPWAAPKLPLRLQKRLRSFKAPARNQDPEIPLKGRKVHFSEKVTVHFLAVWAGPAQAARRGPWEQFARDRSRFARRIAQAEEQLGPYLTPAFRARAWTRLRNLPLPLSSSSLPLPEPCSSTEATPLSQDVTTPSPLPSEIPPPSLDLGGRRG

[3] = as above; conditions: CREF/GAPDH counter-screens; GAPDH; mean of runs
[4] = run 1, dose range 1, individual replicate IC50 per panel
[5] = run 2, dose range 1, individual replicate IC50 per panel

SMILES	IC50 (Rat fibroblasts (CREF); mean of runs)	IC50 (Rat fibroblasts (CREF); [4]) [µM]	IC50 (Rat fibroblasts (CREF); [5]) [µM]	IC50 (GAPDH; [4]) [µM]	IC50 (GAPDH; [5]) [µM]	IC50 (PEG-3 [1]; [4]) [µM]	IC50 (PEG-3 [1]; [5]) [µM]	IC50 (PEG-3 [2]) [µM]	IC50 [3] [µM]
COc1cc(CNCCCN2CCOCC2)cc(Br)c1OCc1ccc(Cl)cc1	14.4 µM	> 80	14.4	15.3	9.28	9.57	8.99	9.28	12.3
Cc1ccsc1/C=N/Nc1cccc(C(=O)O)c1	> 100 µM (inactive)	> 100	> 100	3.26	7.43	1.27	1.92	1.6	5.35
